System: CCRF-CEM
Experiment: Cell cycle arrest in human CCRF-CEM cells assessed as increased of cellular debris level at IC50 concentration using propidium iodide staining by flow cytometry relative to control
Format: functional
Details: not given

| SMILES | Activity [%] |
| --- | --- |
| C[C@H](NP(=O)(OC[C@H]1O[C@@H](n2ccc3c(-c4ccsc4)ncnc32)[C@H](O)[C@@H]1O)Oc1ccccc1)C(=O)OCc1ccccc1 (stereo partly drawn) | 22.2 |

System: CCRF-CEM
Experiment: Cell cycle arrest in human CCRF-CEM cells assessed as accumulation at G2/M phase at IC50 concentration using propidium iodide staining by flow cytometry relative to control
Format: functional
Details: not given

| SMILES | Activity [%] |
| --- | --- |
| C[C@H](NP(=O)(OC[C@H]1O[C@@H](n2ccc3c(-c4ccsc4)ncnc32)[C@H](O)[C@@H]1O)Oc1ccccc1)C(=O)OCc1ccccc1 (stereo partly drawn) | 9.9 |

System: CCRF-CEM
Experiment: Cell cycle arrest in human CCRF-CEM cells assessed as accumulation at S phase at IC50 concentration using propidium iodide staining by flow cytometry relative to control
Format: functional
Details: not given

| SMILES | Activity [%] |
| --- | --- |
| C[C@H](NP(=O)(OC[C@H]1O[C@@H](n2ccc3c(-c4ccsc4)ncnc32)[C@H](O)[C@@H]1O)Oc1ccccc1)C(=O)OCc1ccccc1 (stereo partly drawn) | 54.2 |

System: CCRF-CEM
Experiment: Cell cycle arrest in human CCRF-CEM cells assessed as accumulation at G1 phase at IC50 concentration using propidium iodide staining by flow cytometry relative to control
Format: functional
Details: not given

| SMILES | Activity [%] |
| --- | --- |
| C[C@H](NP(=O)(OC[C@H]1O[C@@H](n2ccc3c(-c4ccsc4)ncnc32)[C@H](O)[C@@H]1O)Oc1ccccc1)C(=O)OCc1ccccc1 (stereo partly drawn) | 35.9 |

System: HepG2
Experiment: Cytotoxicity against human HepG2 cells after 3 days by XTT assay
Format: functional, cell-based
Details: HepG2, 72 h

| SMILES | IC50 [µM] |
| --- | --- |
| COC(=O)[C@H](C)NP(=O)(OC[C@H]1O[C@@H](n2ccc3c(-c4ccoc4)ncnc32)[C@H](O)[C@@H]1O)Oc1ccccc1 (stereo partly drawn) | 3.61 |
| CCOC(=O)[C@H](C)NP(=O)(OC[C@H]1O[C@@H](n2ccc3c(-c4ccoc4)ncnc32)[C@H](O)[C@@H]1O)Oc1ccccc1 (stereo partly drawn) | 2.96 |
| C[C@H](NP(=O)(OC[C@H]1O[C@@H](n2ccc3c(-c4ccsc4)ncnc32)[C@H](O)[C@@H]1O)Oc1ccccc1)C(=O)OCc1ccccc1 (stereo partly drawn) | 4.58 |

System: not listed separately
Experiment: Cytotoxicity against human HeLaS3 cells after 3 days by XTT assay
Format: functional, cell-based
Details: HeLa S3, 72 h

| SMILES | IC50 [µM] |
| --- | --- |
| COC(=O)[C@H](C)NP(=O)(OC[C@H]1O[C@@H](n2ccc3c(-c4ccoc4)ncnc32)[C@H](O)[C@@H]1O)Oc1ccccc1 (stereo partly drawn) | 7.84 |
| CCOC(=O)[C@H](C)NP(=O)(OC[C@H]1O[C@@H](n2ccc3c(-c4ccoc4)ncnc32)[C@H](O)[C@@H]1O)Oc1ccccc1 (stereo partly drawn) | 4.89 |
| C[C@H](NP(=O)(OC[C@H]1O[C@@H](n2ccc3c(-c4ccsc4)ncnc32)[C@H](O)[C@@H]1O)Oc1ccccc1)C(=O)OCc1ccccc1 (stereo partly drawn) | 5.45 |

System: HL-60
Experiment: Cytotoxicity against human HL60 cells after 5 days by SRB assay
Format: functional
Details: HL-60, 120 h

| SMILES | GI50 [µM] |
| --- | --- |
| COC(=O)[C@H](C)NP(=O)(OC[C@H]1O[C@@H](n2ccc3c(-c4ccoc4)ncnc32)[C@H](O)[C@@H]1O)Oc1ccccc1 (stereo partly drawn) | > 10 |
| CCOC(=O)[C@H](C)NP(=O)(OC[C@H]1O[C@@H](n2ccc3c(-c4ccoc4)ncnc32)[C@H](O)[C@@H]1O)Oc1ccccc1 (stereo partly drawn) | > 10 |
| C[C@H](NP(=O)(OC[C@H]1O[C@@H](n2ccc3c(-c4ccsc4)ncnc32)[C@H](O)[C@@H]1O)Oc1ccccc1)C(=O)OCc1ccccc1 (stereo partly drawn) | > 10 |

System: CCRF-CEM
Experiment: Cytotoxicity against human CCRF-CEM cells after 3 days by XTT assay
Format: functional, cell-based
Details: 72 h

| SMILES | IC50 [µM] |
| --- | --- |
| COC(=O)[C@H](C)NP(=O)(OC[C@H]1O[C@@H](n2ccc3c(-c4ccoc4)ncnc32)[C@H](O)[C@@H]1O)Oc1ccccc1 (stereo partly drawn) | > 10 |
| CCOC(=O)[C@H](C)NP(=O)(OC[C@H]1O[C@@H](n2ccc3c(-c4ccoc4)ncnc32)[C@H](O)[C@@H]1O)Oc1ccccc1 (stereo partly drawn) | > 10 |
| C[C@H](NP(=O)(OC[C@H]1O[C@@H](n2ccc3c(-c4ccsc4)ncnc32)[C@H](O)[C@@H]1O)Oc1ccccc1)C(=O)OCc1ccccc1 (stereo partly drawn) | > 10 |

System: DU-145
Experiment: Cytotoxicity against human DU145 cells after 5 days by SRB assay
Format: functional
Details: DU-145, 120 h

| SMILES | GI50 [µM] |
| --- | --- |
| COC(=O)[C@H](C)NP(=O)(OC[C@H]1O[C@@H](n2ccc3c(-c4ccoc4)ncnc32)[C@H](O)[C@@H]1O)Oc1ccccc1 (stereo partly drawn) | 3.86 |
| CCOC(=O)[C@H](C)NP(=O)(OC[C@H]1O[C@@H](n2ccc3c(-c4ccoc4)ncnc32)[C@H](O)[C@@H]1O)Oc1ccccc1 (stereo partly drawn) | 9.05 |
| C[C@H](NP(=O)(OC[C@H]1O[C@@H](n2ccc3c(-c4ccsc4)ncnc32)[C@H](O)[C@@H]1O)Oc1ccccc1)C(=O)OCc1ccccc1 (stereo partly drawn) | 3.57 |

System: not listed separately
Experiment: Cytotoxicity against human Hs578 cells after 5 days by SRB assay
Format: functional
Details: Hs578, 120 h

| SMILES | GI50 [µM] |
| --- | --- |
| COC(=O)[C@H](C)NP(=O)(OC[C@H]1O[C@@H](n2ccc3c(-c4ccoc4)ncnc32)[C@H](O)[C@@H]1O)Oc1ccccc1 (stereo partly drawn) | > 10 |
| CCOC(=O)[C@H](C)NP(=O)(OC[C@H]1O[C@@H](n2ccc3c(-c4ccoc4)ncnc32)[C@H](O)[C@@H]1O)Oc1ccccc1 (stereo partly drawn) | 5.97 |
| C[C@H](NP(=O)(OC[C@H]1O[C@@H](n2ccc3c(-c4ccsc4)ncnc32)[C@H](O)[C@@H]1O)Oc1ccccc1)C(=O)OCc1ccccc1 (stereo partly drawn) | 7.56 |

System: NCI-H23
Experiment: Cytotoxicity against human NCI-H23 cells after 5 days by SRB assay
Format: functional
Details: NCI-H23, 120 h

| SMILES | GI50 [µM] |
| --- | --- |
| COC(=O)[C@H](C)NP(=O)(OC[C@H]1O[C@@H](n2ccc3c(-c4ccoc4)ncnc32)[C@H](O)[C@@H]1O)Oc1ccccc1 (stereo partly drawn) | > 10 |
| CCOC(=O)[C@H](C)NP(=O)(OC[C@H]1O[C@@H](n2ccc3c(-c4ccoc4)ncnc32)[C@H](O)[C@@H]1O)Oc1ccccc1 (stereo partly drawn) | 8.28 |
| C[C@H](NP(=O)(OC[C@H]1O[C@@H](n2ccc3c(-c4ccsc4)ncnc32)[C@H](O)[C@@H]1O)Oc1ccccc1)C(=O)OCc1ccccc1 (stereo partly drawn) | 7.44 |

System: HCT-116
Experiment: Cytotoxicity against human HCT116 cells after 5 days by SRB assay
Format: functional
Details: HCT-116, 120 h

| SMILES | GI50 [µM] |
| --- | --- |
| COC(=O)[C@H](C)NP(=O)(OC[C@H]1O[C@@H](n2ccc3c(-c4ccoc4)ncnc32)[C@H](O)[C@@H]1O)Oc1ccccc1 (stereo partly drawn) | 7.95 |
| CCOC(=O)[C@H](C)NP(=O)(OC[C@H]1O[C@@H](n2ccc3c(-c4ccoc4)ncnc32)[C@H](O)[C@@H]1O)Oc1ccccc1 (stereo partly drawn) | 9.06 |
| C[C@H](NP(=O)(OC[C@H]1O[C@@H](n2ccc3c(-c4ccsc4)ncnc32)[C@H](O)[C@@H]1O)Oc1ccccc1)C(=O)OCc1ccccc1 (stereo partly drawn) | 7.51 |

From ChEMBL document CHEMBL1641589, “Phosphoramidate pronucleotides of cytostatic 6-aryl-7-deazapurine ribonucleosides” (Bioorg Med Chem, 2011)
